Data set [1] addresses T1, mineralocorticoid receptor (MR) (Homo sapiens, UniProt P08235).
T1 sequence (P08235 726-984): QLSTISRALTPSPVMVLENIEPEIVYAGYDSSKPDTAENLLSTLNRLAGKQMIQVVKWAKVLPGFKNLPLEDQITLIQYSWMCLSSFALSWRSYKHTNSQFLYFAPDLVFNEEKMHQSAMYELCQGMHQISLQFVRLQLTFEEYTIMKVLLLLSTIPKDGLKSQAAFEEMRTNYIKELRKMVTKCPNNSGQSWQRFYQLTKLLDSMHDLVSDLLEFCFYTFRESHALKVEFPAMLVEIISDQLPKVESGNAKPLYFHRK
The experiment in a line: Assay for agonist activity on mineralocorticoid receptor (luciferase reporter, HEK293 cells transfected with pBIND-MR plasmid). It counts as cell-based. The procedure, abridged:
(§1)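 HEK293 cells transiently transfected with pBIND-MR or pBIND-PR, seeded in phenol red-free DMEM with 5% charcoal-stripped serum. Compounds tested as 12-point 4-fold dilutions from 50 µM in duplicate, 0.1% DMSO blank. Luciferase luminescence read, EC50 by nonlinear fit.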
For orientation: A reporter such as luciferase makes a cellular process visible.

The target of data set [2] is T2, progesterone receptor (PR) (Homo sapiens, UniProt P06401).
T2 sequence (P06401 678-933): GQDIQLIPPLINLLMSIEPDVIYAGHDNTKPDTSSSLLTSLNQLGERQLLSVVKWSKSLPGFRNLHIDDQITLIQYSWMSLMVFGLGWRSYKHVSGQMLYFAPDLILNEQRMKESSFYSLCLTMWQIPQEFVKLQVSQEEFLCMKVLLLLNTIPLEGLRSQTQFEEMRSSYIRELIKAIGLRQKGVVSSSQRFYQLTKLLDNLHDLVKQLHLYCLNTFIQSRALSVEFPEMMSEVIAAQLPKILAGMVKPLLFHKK
The experiment in a line: Assay for agonist activity on progesterone receptor (luciferase reporter, HEK293 cells transfected with pBIND-PR plasmid). The format is cell-based. The procedure, abridged:
as §1

Data set [3] can be described thus: Determination of stability in plasma in vitro, human plasma (LC-MS/MS). The format is in vitro ADME. The settings on record: human, human plasma, 1 µM, 37 °C; read-out: Half-life T1/2 (min) in plasma of different species, Human plasma. The procedure:
(§2) Pharmacological Example 3: Determination of Stability in Plasma in Vitro
(§3) The stock solution was diluted with acetonitrile to obtain a working solution at a concentration of 100 µ M. The solution should be freshly prepared prior to use and maintained at room temperature during application.
(§4) 990 µ L of human and mouse plasma (N = 2) were separately pipetted and pre-incubated at 37 °C for 5 min. Then, 10 µ L of the test compound working solution was added and vortexed thoroughly (the final concentration of the test compound was 1 µ M). Immediately, 50 µ L of the plasma sample was added to 150 µ L of ice-cold precipitation agent containing the internal standard and vortexed thoroughly as the 0-time sample. The remaining plasma sample was continuously incubated at 37 °C, and 50 µ L of the plasma sample was aspirated and added to 150 µ L of ice-cold precipitation agent containing the internal standard at preset sampling time points, followed by thorough vortexing. The collected samples were stored in a freezer at -60 to -90 °C until analysis.
(§5) The concentration of the test compound was determined by LC-MS/MS, and its degradation was monitored. (semi-quantitative determination was conducted by comparing the peak area of the analyte to that of the internal standard).

Data set [4] in a line: Determination of stability in plasma in vitro, mouse plasma (LC-MS/MS). It counts as in vitro ADME. The settings on record: 37 °C, read-out: Half-life T1/2 (min) in plasma of different species, Mouse plasma. The procedure:
as §2, §3, §4, §5

A short description of data set [5]: Stability in animal lung tissue homogenate, skin tissue homogenate and aqueous humor. It counts as in vitro ADME.
The test system of a further data set is asthma model mice. The experiment in a line: Anti-asthma pharmacodynamic experiment: airway hyperresponsiveness (Penh) after methacholine challenge. The format is in vivo, female BALB/c mice.
Data set [6] relates to inflammatory cytokines IL-6 and IL-12. The experiment in a line: Anti-asthma pharmacodynamic experiment: inflammatory cytokines in bronchoalveolar lavage fluid (ELISA). The format is in vivo, female BALB/c mice.
The test system of a further data set is psoriasis model mice. The experiment in a line: Psoriasis experiment (imiquimod model): skin lesion (PASI) score. The format is in vivo. The settings on record: for PASI scores: compared with the model group; for PASI score: day 8 of modeling, 0.2 g cream per mouse daily for 7 days (compounds 1 mg/g, fluticasone propionate 0.5 mg/g).
A further data set concerns IL-17. The experiment in a line: Psoriasis experiment (imiquimod model): inflammatory cytokine in serum (ELISA). The format is in vivo, mice. The settings on record: for level of IL-17 / inflammatory cytokines in psoriasis model mice: compared with the model group; for IL-17: serum, day 8 of modeling, 0.2 g cream per mouse daily for 7 days.
Data set [7] in a line: Pharmacokinetic (PK) experiment in rats. The format is in vivo, male SD rats. The settings on record: male, SD, rat, plasma, single. Here is the method:
Pharmacological Example 11. Pharmacokinetic (PK) Experiment in Rats
The solution was prepared before administration.
Animals: 6 male SD rats, SPF grade (Beijing Vital River Laboratory Animal Technology Co., Ltd.).
Animal grouping: The animals were weighed prior to administration, and the dosage was calculated based on body weight. The animals in the oral administration group were fasted overnight (10-14 hours) before administration, and food was reintroduced 4 hours post-administration. Table 23. Animal grouping and drug administration dosages for pharmacokinetic (PK) experiment in rats
Blood collection time points: Blood was collected from the jugular vein at 2 min, 5 min, 15 min, 30 min, 1 h, 2 h, 4 h, 8 h, and 24 h after administration. Approximately 0.25 mL of blood was collected for each sample, anticoagulated with heparin sodium, and then placed on ice immediately.
Plasma sample processing: Blood samples were placed on ice after collection and centrifuged to separate plasma within 1 hour (centrifugation conditions: 6000 rpm, 3 minutes, 2-8 °C ). Plasma samples were stored in a -80°C freezer before analysis.
Data processing: Pharmacokinetic parameters were calculated using Phoenix WinNonlin 8.2.0 based on the plasma drug concentration data at different time points.

The conditions of data set [8]: after entering the systemic circulation; cited from earlier work.
The mark [9] stands for this setting: bronchoalveolar lavage fluid, 0.3 mg/mL, 50 µL intratracheally once daily for 3 days.

Procedure for IL-17: (§6) Positive control drug: Fluticasone Propionate Cream (specification: 0.05% × 15 g, Zhejiang Xianju Pharmaceutical Co. Ltd., Lot No. 211106), stored at room temperature protected from light until use.
(§7) Adult mice were selected, and the skin of 2 cm × 3 cm on the back of mice was locally depilated. The mice in the model group and drug administration group were applied with 62.5 mg of 5% imiquimod cream on their back for modeling, while the mice in the blank control group were applied with medical petroleum jelly on their back daily. The above procedures were performed once a day for 7 consecutive days.
(§8) The mice in the drug administration group were applied with the corresponding drugs on their backs daily at a dose of 0.2 g per mouse, while the blank control group and the model group were only applied with 0.2 g of the test sample drug matrix. One hour after drug administration, the drugs were wiped off with sterile cotton swabs, followed by the application of imiquimod. The above procedures were performed once a day for 7 consecutive days.
After the PASI scoring on day 8 of modeling, blood was collected from the orbital sinus of mice and centrifuged at 3000 rpm for 10 min. The supernatant was extracted to measure the level of IL-17. All procedures were performed following the instructions of the ELISA kit.
(§9) Statistical analysis was performed using SPSS software, and the results were expressed as mean ± standard deviation. One-way ANOVA was used for intergroup comparisons. For data with homogeneous variance, the LSD test was used; for data with heterogeneous variance, the Dunnett-t test was used. A value of P < 0.05 was considered statistically significant.
Procedure for asthma model mice: Pharmacological Example 4: Pharmacodynamic Experiment on Anti-Asthma
The suspensions were stored at room temperature protected from light until use.
Positive control drug: Budesonide Suspension for Inhalation (specification: 2 mL: 1 mg; AstraZeneca Inc.; Lot No. : 327392) was diluted with injection-grade sodium chloride solution to 0.3 mg/ml as the positive control drug, and stored at room temperature protected from light until use.
Sixty female BALB/c mice underwent a one-week adaptive feeding period. Ten mice were randomly selected as the blank control group, while 50 mice were selected to establish asthma models.
From days 21 to 23 after sensitization, the mice in the model group and drug administration group were exposed to a 30-minute aerosol challenge with 5% OVA, while the mice in the blank control group were exposed to normal saline aerosol for the same duration.
Airway responsiveness was measured in all groups of mice after the last challenge. The mice were placed into a plethysmography chamber, and baseline Penh values were recorded. Subsequently, the mice were challenged with aerosolized methacholine at concentrations from low to high of 0, 6.25, and 12.5 mg/mL, with an aerosol volume of 100 µ L each time for 60 s. […] Penh values were then recorded for 3 min and averaged to compare the airway responsiveness of each group of mice.
Statistical analysis was performed using SPSS software. Measurement data were expressed as mean ± standard deviation. One-way ANOVA was used for intergroup comparisons. For data with homogeneous variance, LSD test was used; for data with heterogeneous variance, Dunnett-t test was used. A value of P < 0.05 was considered statistically significant.
Procedure for psoriasis model mice: as §6, §7, §8
Referring to the clinical Psoriasis Area and Severity Index (PASI) scoring criteria, erythema, scaling, and thickness at the skin lesion sites were evaluated on a 0-4 scale on day 8 of modeling, and the total score was obtained by summing the three items.
• (1) Erythema: a score of 0 points indicates no erythema, a score of 1 point indicates erythema appearing light red, a score of 2 points indicates erythema appearing red, a score of 3 points indicates erythema appearing dark red, and a score of 4 points indicates erythema appearing extremely deep red; • (2) Scaling: a score of 0 points indicates no scaling on the surface, a score of 1 point indicates partial skin lesions covered with scaling, a score of 2 points indicates most skin lesions covered with scaling, a score of 3 points indicates almost all skin lesions covered with scaling in layers, and a score of 4 points indicates all skin lesions covered with scaling; • (3) Thickness: a score of 0 points indicates skin lesions flush with normal skin, a score of 1 point indicates skin lesions slightly elevated above normal skin surface, a score of 2 points indicates moderate elevation of skin lesions, a score of 3 points indicates thickened skin lesions with obvious elevation, and a score of 4 points indicates highly thickened skin lesions with prominent elevation.
as §9

The term EC50 denotes the concentration giving half of the maximal effect. Low readings indicate greater potency, high ones weaker potency. One may read the AUC(0-t) as exposure summed from dosing to a finite time, without extrapolation to infinity. The term Cmax denotes the maximum level reached in the sampled fluid or tissue. Consider `C[C@]12C=CC(=O)C=C1[C@@H](F)C[C@H]1[C@@H]3C[C@H]4OC(c5ccc(CSC6CCOC6=O)cc5)O[C@@]4(C(=O)CO)[C@@]3(C)C[C@H](O)[C@@]12F` (stereo partly drawn) [Compound 8, (2S,6aS,6bR,7S,8aS,8bS,11aR,12aS,12bS)-2,6b-Difluoro-7-hydroxy-8b-(2-hydroxyacetyl)-6a,8a-dimethyl-10-(4-(((2-oxotetrahydrofuran-3-yl)thio)methyl)phenyl)-1,2,6a,6b,7,8,8a,8b,11a,12,12a, 12b-dodecahydro-4H-naphtho[2',1':4,5]indeno[1,2-d][1,3]dioxol-4-one], for which the concentration giving a half-maximal response (EC50) in data set [1] is > 50 µM. Further, the EC50 in data set [2] was > 50 µM. Further, the half-life at 1 µM in data set [3] was < 30 min. Besides, the half-life at 1 µM in data set [4] is < 30 min. In [5], the “stability in animal lung tissue homogenate, skin tissue homogenate, and aqueous humor” value is “relatively stable”. Also, the “Penh values in mice, Methacholine concentration (mg/ml) 0” value in the data set with asthma model mice (0.3 mg/mL, 50 µL intratracheally once daily for 3 days, methacholine 0 mg/ml) was determined as 1.17 ± 0.23. For the same compound, the “Penh values in mice, Methacholine concentration (mg/ml) 6.25” value in the data set with asthma model mice (0.3 mg/mL, 50 µL intratracheally once daily for 3 days, methacholine 6.25 mg/ml) is 1.78 ± 0.46. The “Penh values in mice, Methacholine concentration (mg/ml) 12.5” value in the data set with asthma model mice (0.3 mg/mL, 50 µL intratracheally once daily for 3 days, methacholine 12.5 mg/ml) worked out at 2.07 ± 0.66. Moreover, the “Effects on airway hyperresponsiveness (Penh values) in mice” value in the data set on asthma model mice (compared with the model group) was “significantly decreased the Penh values in mice”. Also, in data set [6] (setting [9]), the “IL-6” value was determined as 19.9 ± 5.3 pg/mL and the “IL-12” value is 20.1 ± 7.1 pg/mL. Further, the “Effects on inflammatory cytokines in bronchoalveolar lavage fluid of mice” value in [6] (compared with the model group) was “extremely significantly decreased the levels of IL-6 and IL-12 in mice”. In addition, in the data set with psoriasis model mice, the PASI scores entry is “PASI scores significantly decreased on day 7” and the PASI score came to 4.8 ± 1.3. Besides, in the data set with IL-17, the “level of IL-17 / inflammatory cytokines in psoriasis model mice” value is reported as “significantly decreased the level of IL-17” and the “IL-17” value was 53.35 ± 64.19 pg/mL. In addition, in [7] (iv, 2 mg/kg), the AUC(0-t) turned out to be 106 ± 35.9 ng·h/mL and the half-life is < 30 min. For the same compound, in [7] (po, 10 mg/kg, gavage), the AUC(0-t) was < 70 ng·h/mL and the half-life is 313 ± 190 min. Also, in data set [7] (IV, 2 mg/kg), the concentration peaked (Cmax) at 924 ± 504 ng/mL. In addition, the Cmax in data set [7] (PO, 10 mg/kg, gavage) is 23.5 ± 14.4 ng/mL.
For `CCC(=O)O[C@]1(C(=O)SCF)[C@H](C)C[C@H]2[C@@H]3C[C@H](F)C4=CC(=O)C=C[C@]4(C)[C@@]3(F)[C@@H](O)C[C@@]21C` [Fluticasone propionate, reference compound], in the data set on psoriasis model mice, the PASI scores entry is recorded as “PASI scores significantly decreased on day 7” and the PASI score worked out at 4.0 ± 0.6. Further, in the data set on IL-17, the “level of IL-17 / inflammatory cytokines in psoriasis model mice” value is listed as “significantly decreased the level of IL-17” and the “IL-17” value amounted to 25.04 ± 10.02 pg/mL. In [8], the “plasma half-life in the human body” value was 180 min.

The record behind these values is EP4635969A1, “NOVEL GLUCOCORTICOID, METHOD FOR PREPARING SAME, AND USE THEREOF” (Tianjin Pharmaceutical Biotechnology Co., Ltd., priority 2022, dated 2024).
